# No end group written: not given here.
# Assays:
# Format in all cases: cell-based
# HIV (MN) = assay: HIV infectivity of THP-1 cells, p24gag immunofluorescence; conditions: 100 μM peptide, HIV strain MN, 72 hours
# Experimental: (a) HIV (IIIb) replication in cultures of Jurkat T-cells was estimated by measuring the supernatant reverse transcriptase activity two weeks after infection. Peptide 2 and peptide 3 were at 100 μM final concentration and SDF-1α was added at 100 ng/ml final concentration 1 hour prior to exposure to virus. Values are mean±SEM from 12 wells, expressed as the percentage of the reverse transcriptase activity in the supernatant from the control wells. The experiment shown is typical of six separate experiments. (b) HIV (IIIb) infectivity of Jurkat T-cells was estimated by staining cells treated identically to those in (a) for p24^gag expression. Values are mean±S.D. percentage of cells stained for p24gag averaged from 12 fields of view from each of two separate wells. (c) HIV (MN) infectivity of THP-1 cells measured as in (b). MIP-1α was used at 100 ng/ml final concentration. (d) Immunofluorescence micrographs of THP-1 cells 48 hours after exposure to HIV (MN) in the absence (top panel) or presence (lower panel) of 100 μM peptide 3, stained for p24^gag. Several cells in the upper panel, but not the lower panel, show strong, punctuate staining for p24^gag antigen. Both fields of view contain 40-50 cells (assessed by Hoeschst 33345 staining viewed under UV illumination conditions).
# Jurkat cells following HIV infection were attached to 8-well chamber slides (Becton-Dickinson) by spinning the slides using a plate rotor in a Labofuge centrifuge (Haeraeus) at 3,000×g for 5 minutes. Attached Jurkat cells or THP-1 cells were then fixed by dipping the slides into ice-cold 70% ethanol for 90 seconds. […] A threshold was then applied to each image which was the lowest threshold that detected <1% of the pixels of an image of uninfected cells stained under identical conditions. The number of objects exceeding this threshold in each field of view were counted. This process, for example, detected 9 objects in the field of view shown in the upper panel of FIG. 54D and 1 object in the field of view shown in the lower panel. […]
# [1] = test system: TGFβ1 induced human monocyte migration; assay: Human monocyte migration, TGFβ1; conditions: n.s. = no statistically significant inhibition
# Experimental: (§1) Agents may also be screened in a chemotactic assay which employs human neutrophils, eosinophils, mast cells, basophils, platelets, lymphocytes or monocytes. For monocytes, 9 mls of fresh blood are transferred to a tube containing 1 ml of 3.8% sodium citrate, and left at room temperature for 15 minutes. Five mls of this anti-coagulated blood are carefully layered over 3.5 ml Polymorphprep® (Nycomed Pharma, Oslo), and centrifuged at 500 g for 35 minutes per the manufacturer's instructions. The top band at the sample/medium interface contains monocytes. The monocytes are carefully removed with a glass pipette, and reconstituted to the original volume (5 ml). The cells are washed with PBS plus 10% fetal calf serum, and centrifuged at 400 g for 10 minutes. The washing step is repeated three times before the cells are counted. Cells are resuspended at 1×10^7 cells/ml in RPMI-1640+10% fetal calf serum (FCS). The monocytes are cultured for two days at 37° C. in a humidified atmosphere of 5% CO2.
# (§2) On day 2, the cells are counted, spun down, and reconstituted to 1×10^7 cells/ml in Gey's balanced salt solution+1 mg/ml bovine serum albumin (BSA). […]
# [2] = test system: IL8 induced human monocyte migration; assay: Human monocyte migration, IL8; conditions: n.s. = no statistically significant inhibition
# Experimental: as §1, §2
# [3] = test system: MCP-1 induced human monocyte migration; assay: Human monocyte migration, MCP-1; conditions: n.s. = no statistically significant inhibition
# Experimental: as §1
# On day 2, the cells are counted, spun down, and reconstituted to 1×10^7 cells/ml in Gey's balanced salt solution+1 mg/ml bovine serum albumin (BSA). Chemotaxis is induced in a 48 or 96-well disposable chemotaxis chamber fitted with a 5-8 μm polycarbonate filter for monocytes, neutrophils or eosinophils, or a 3 μm filter for lymphocytes (Uguccioni et al, Eur. J. Immunol., 25, 64 (1995); Loetscher et al., J. Exy. Med., 184, 569 (1996); Weber et al., J. Immunol., 4166 (1995)) (PVP free, ChemoTX, Neuroprobe Inc., Cabin John, Md.). Twenty-nine μl of chemoattractant or control are added to the lower compartment of each well. The framed filter is aligned with the holes in the corner of the filter frame and placed over the wells. Two and one-half×10^5 monocytes in 25 μl of Gey's balanced salt solution+1 mg/ml BSA are added to the upper compartment. The agent is dissolved in MilliQ water and then serially diluted in the Gey's balanced salt solution. In most cases, the serially diluted agent is added to the upper compartment of the chemotaxis chamber. […]
Sequence,"inhibition of HIV infectivity of THP-1 cells, p24gag staining (HIV (MN))","inhibition of HIV infectivity of THP-1 cells, p24gag staining (HIV (MN); listed as second peptide, spanning amino acids 51 to 62 of human MCP-1) [%]","% inhibition at 100 μM versus TGFβ1, human monocyte migration [1]","% inhibition at 100 μM versus IL8, human monocyte migration [2]","% inhibition at 100 μM versus MCP-1, human monocyte migration [3] [%]","% inhibition at 100 μM versus MCP-1, human monocyte migration ([3]; listed as Peptide 2 (SEQ ID NO: 3)) [%]"
EICADPKQKWVQ [peptide 3(1-12)[MCP-1]],more than 80%,83±7,n.s.,106%,108,
SYRRITSSKCPKEAV [peptide 2(1-15)[MCP-1]],28±5%,,n.s.,n.s.,20,23

# — patent US7989466B2, “Methods to inhibit or augment an inflammatory response” (Cambridge Enterprise Limited, priority 1999, dated 2011)
